For orientation: IC50 means the concentration at which inhibition is half-maximal. A low value points to greater potency.

In the assay the target is HIV-1 integrase. The experiment in a line: Integrase strand-transfer scintillation proximity assay. It counts as biochemical. The conditions noted are these: full-length wild type HIV-1 integrase (SF1), 50 min at 37°C. Here is the method:
The annealed product represents preprocessed viral ds-DNA derived from the LTR U5 sequence of the viral genome.
The radiolabeled product was purified using a NENSORB cartridge and stored in stabilized aqueous solution (PerkinElmer).
White, polystyrene, flat-bottom, non-binding surface, 96-well plates were purchased from Corning.
Supernant was discarded and pellet resuspended in 50 mM HEPES pH 7.0, 750 mM NaCl, 5 mM DTT, 1 mM AEBSF and homogenized in a 40 mL Dounce homogenizer for 20 minutes on ice. […] Supernant was discarded and pellet resuspended in 50 mM HEPES pH 7.0, 750 mM NaCl, 25 mM CHAPS, 5 mM DTT, 1 mM AEBSF.
Supernant was then diluted 1:1 with 50 mM HEPES pH 7.0, 25 mM CHAPS, 1 mM DTT, 1 mM AEBSF and loaded onto a Q-Sepharose column pre-equilibrated with 50 mM HEPES, pH 7.0, 375 mM NaCl, 25 mM CHAPS, 1 mM DTT, 1 mM AEBSF. The flow through peak was collected and NaCl diluted to 0.1 M with 50 mM HEPES pH 7.0, 25 mM CHAPS, 1 mM DTT, 0.5 mM AEBSF and loaded onto a SP-Sepharose column pre-equilibrated with 50 mM HEPES pH 7.0, 100 mM NaCl, 25 mM CHAPS, 1 mM DTT, 0.5 mM AEBSF. After washing the column with the equilibration buffer, a 100 to 400 mM NaCl gradient was run. The eluted integrase was concentrated and run on a S-300 gel diffusion column using 50 mM HEPES pH 7.0, 500 mM NaCl, 25 mM CHAPS, 1 mM DTT, 0.5 mM AEBSF. […]
A general note: Scintillation proximity formats need no separation of bound from free tracer.

The substance “1-[({[(4R)-2,2-dimethyl-1,3-dioxolan-4-yl]methyl}amino)meth yl]-3-(4-fluorobenzyl)-7-hydroxy-3,7-dihydro-6H-pyrrolo[2,3-c]-1,7-naphthyridin-6-one [Example 35]” had an IC50 of 0.045 µM.
The result for “(3R)-1-{[3-(4-fluorobenzyl)-7-hydroxy-6-oxo-6,7-dihydro-3H-pyrrolo[2,3-c]-1,7-naphthyridin-1-yl]methyl)-N,N-dimethylpyrrolidine-3-carboxamide [Example 17]” reads 0.009 µM.

(Values after EP1873155A1, “Inhibitors of the HIV integrase enzyme” (PFIZER INC., priority 2004, dated 2005).)
